Laboratory results from EP1069898B1, “TOPICAL ANTISEPTIC COMPOSITIONS AND METHODS” (MARGOLIN, Solomon B., priority 1998, dated 1999).

Legend:
Aspergillus niger = test: Preliminary antimicrobial test, plate growth score; assay type: cell-based
Candida albicans = test: Preliminary antimicrobial test, plate growth score; assay type: cell-based; set-up: key: 1=very slight; 2=slight; 3=slight to moderate; 4=moderate; 10=total plate growth (maximal growth)
Pseudomonas aeruginosa = test: Preliminary antimicrobial test, plate growth score; assay type: cell-based; set-up: key: 1=very slight; 2=slight; 3=slight to moderate; 4=moderate; 10=total plate growth (maximal growth)
Bacillus subtilis = test: Preliminary antimicrobial test, plate growth score; assay type: cell-based
Escherichia coli = test: Preliminary antimicrobial test, plate growth score; assay type: cell-based
[1] = Storage stability (chemical assays and physical characteristics); assay type: physicochemical; conditions: crystalline; 25 degrees Centigrade
From the text: A critical feature of the compositions of this invention is the chemical stability of the active ingredient(s), pirfenidone and/or related compounds. Crystalline pirfenidone is stable at room temperature (i.e., 25 degrees Centigrade) for more than five years. The formulations described above are stable for two years or longer at 25 degrees Centigrade (room temperature), based upon chemical assays and upon physical characteristics (color, plasticity, active ingredient dispersion and suspension).

[2] = test system: Trychophton mentagrophytes; test: Preliminary antimicrobial test, plate growth score; assay type: cell-based; set-up: key: 1=very slight; 2=slight; 3=slight to moderate; 4=moderate; 10=total plate growth (maximal growth)
Staphylococcus aureus = test: Preliminary antimicrobial test, plate growth score; assay type: cell-based
[3] = Primary rabbit acute eye irritation test (Draize method); assay type: in vivo; conditions: 2.0% sterile aqueous solution, 0.1 ml. per eye; six albino rabbits; examined up to 10 days
Protocol: The eyes were carefully examined at 1.0 minutes, 30 minutes, and 3 hours after applying the solution, and then repeatedly examined for 10 days after the application of the pirfenidone solution (0.1 ml. per eye).
The eyes were carefully examined at 1, 3, 8, 24, and 48 hours and carefully re-examined daily for 10 days after the application of the ointment (100 milligrams per eye).

Proteus vulgaris = test: Preliminary antimicrobial test, plate growth score; assay type: cell-based
[4] = Pirfenidone concentration 5.0 wt.%
[5] = Pirfenidone concentration 10.0 wt.%

## Cc1ccc(=O)n(-c2ccccc2)c1 [Pirfenidone, 5-methyl-1-phenyl-2-(1H) pyridone]
Aspergillus niger; [4]
  GROWTH SCORES (0 TO 10): 0
Aspergillus niger; [5]
  GROWTH SCORES (0 TO 10): 0
Candida albicans; [4]
  GROWTH SCORES (0 TO 10): 2
Candida albicans; [5]
  GROWTH SCORES (0 TO 10): 0
Pseudomonas aeruginosa; Pirfenidone concentration 2.0 wt.%
  GROWTH SCORES (0 TO 10): 1
Pseudomonas aeruginosa; [4]
  GROWTH SCORES (0 TO 10): 0
Pseudomonas aeruginosa; [5]
  GROWTH SCORES (0 TO 10): 0
Bacillus subtilis; [4]
  GROWTH SCORES (0 TO 10): 0
Bacillus subtilis; [5]
  GROWTH SCORES (0 TO 10): 0
Escherichia coli; [4]
  GROWTH SCORES (0 TO 10): 0
Escherichia coli; [5]
  GROWTH SCORES (0 TO 10): 0
[1]
  stable at room temperature: more than five
[2]; [4]
  GROWTH SCORES (0 TO 10): 2
[2]; [5]
  GROWTH SCORES (0 TO 10): 0
Staphylococcus aureus; [4]
  GROWTH SCORES (0 TO 10): 0
Staphylococcus aureus; [5]
  GROWTH SCORES (0 TO 10): 0
[3]
  eye irritation (hyperemia, edema, eye discomfort, chemotaxis): failed to cause any irritation
Proteus vulgaris; [4]
  GROWTH SCORES (0 TO 10): 0
Proteus vulgaris; [5]
  GROWTH SCORES (0 TO 10): 0
